Source: patent US20220194938A1, “NOVEL COMPOUNDS AND PHARMACEUTICAL COMPOSITIONS THEREOF FOR THE TREATMENT OF INFLAMMATORY DISORDERS” (GALAPAGOS NV, priority 2019, published 2022)

Assays:
human IRAK-4 = biological target: T1, human IRAK-4 (Homo sapiens, UniProt Q9NWZ3); experiment: Phosphorylation IC50 determination for human IRAK-4 (ADP-Glo kinase assay); conditions: human IRAK-4, RIP140 substrate, Km ATP; read-out: IRAK4 ADPglo biochemical assay IC50
T1 construct: purchased Carna Biosciences 09 145
T1 sequence (Q9NWZ3 1-460): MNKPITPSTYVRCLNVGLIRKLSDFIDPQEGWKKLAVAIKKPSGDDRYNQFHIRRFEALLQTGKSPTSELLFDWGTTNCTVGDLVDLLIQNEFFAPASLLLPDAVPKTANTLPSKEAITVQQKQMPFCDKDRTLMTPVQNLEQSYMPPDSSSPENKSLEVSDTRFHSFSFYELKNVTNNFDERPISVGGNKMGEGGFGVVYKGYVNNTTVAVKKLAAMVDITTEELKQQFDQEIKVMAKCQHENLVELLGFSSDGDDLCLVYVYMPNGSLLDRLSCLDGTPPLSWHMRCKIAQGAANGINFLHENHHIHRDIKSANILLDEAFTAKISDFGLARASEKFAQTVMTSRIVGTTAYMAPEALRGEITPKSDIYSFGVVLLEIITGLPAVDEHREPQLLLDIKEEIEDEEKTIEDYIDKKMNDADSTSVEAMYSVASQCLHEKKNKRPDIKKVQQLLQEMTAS
Summary of the method: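 IRAK-4 phosphorylation of RIP140 at Km ATP in Tris pH 7.5 buffer with Triton X-100, EGTA, MgCl2, DTT and MnCl2, 120 min at room temperature. ADP formed was measured by ADP-Glo luminescence. Ten-point, 5-fold dilutions (highest final 20 μM, automated format; 1% DMSO), normalised to staurosporine (100%) and DMSO (0%) controls.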

[1] = test system: pooled cryopreserved hepatocytes; experiment: Metabolic stability in hepatocytes (human); assay type: in vitro ADME; conditions: 1 μM test compound
Summary of the method: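 Test compound at 1 μM (0.03% DMSO) incubated with 0.5 million viable pooled cryopreserved hepatocytes/mL at 37° C with shaking; sampled 0–180 min. Parent loss measured by LC-MS/MS versus time-zero, and intrinsic clearance derived from percentage-remaining plots, scaled to L/h/kg and corrected for hepatocyte binding.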

| IC50 (human IRAK-4) | Human (Perc. remaining at 90 min) [1] | SMILES |
| --- | --- | --- |
| 0.1 to 5 nM | 99.9% | CNC(=O)c1cc2nc(CCC(C)(C)O)cn2cc1NC(=O)c1cccc(C(F)(F)F)n1 [Compound 2, 2-(3-hydroxy-3-methyl-butyl)-N-methyl-6-[[6-(trifluoromethyl)pyridine-2-carbonyl]amino]imidazo[1,2-a]pyridine-7-carboxamide] |
| 0.1 to 5 nM | 78.4% | COc1cc2nc(CCC(C)(C)O)cn2cc1NC(=O)c1cccc(C(F)F)n1 [Compound 7, 6-(difluoromethyl)-N-[2-(3-hydroxy-3-methyl-butyl)-7-methoxy-imidazo[1,2-a]pyridin-6-yl]pyridine-2-carboxamide] |
| 0.1 to 5 nM | 99.7% | CCOc1c(NC(=O)c2cccn(C3CC3)c2=O)cn2cc(CCC(C)(C)O)nc2c1F [Compound 37, 1-cyclopropyl-N-[7-ethoxy-8-fluoro-2-(3-hydroxy-3-methyl-butyl)imidazo[1,2-a]pyridin-6-yl]-2-oxo-pyridine-3-carboxamide] |
| 0.1 to 5 nM | 96.75% | COc1c(NC(=O)c2cccn(C3CC3)c2=O)cn2cc(CCC(C)(C)O)nc2c1F [Compound 42, 1-cyclopropyl-N-[8-fluoro-2-(3-hydroxy-3-methyl-butyl)-7-methoxy-imidazo[1,2-a]pyridin-6-yl]-2-oxo-pyridine-3-carboxamide] |
| 0.1 to 5 nM | 95.9% | CCNC(=O)c1cc2nc(CCC(C)(C)O)cn2cc1NC(=O)c1cccc(C(F)(F)F)n1 [Compound 49, N-ethyl-2-(3-hydroxy-3-methylbutyl)-6-(6-(trifluoromethyl)picolinamido)imidazo[1,2-a]pyridine-7-carboxamide] |
| 0.1 to 5 nM | 100.95% | CC(C)(O)CCc1cn2cc(NC(=O)c3cccc(C(F)(F)F)n3)c(C(=O)NCC(F)F)cc2n1 [Compound 48, N-(2,2-difluoroethyl)-2-(3-hydroxy-3-methylbutyl)-6-(6-(trifluoromethyl)picolinamido)imidazo[1,2-a]pyridine-7-carboxamide] |
